Data taken from ChEMBL document CHEMBL1255450, “Detection of E119V and E119I mutations in influenza A (H3N2) viruses isolated from an immunocompromised patient: challenges in diagnosis of oseltamivir resistance” (Antimicrob Agents Chemother, 2010).

How the values were obtained:
[1] = test system: Influenza A virus; assay: Antiviral activity against Influenza A virus (A/Washington/01/2007 (H3N2)) measured in MDCK cells by NA inhibition assay; type: functional, organism-based
[2] = test system: Influenza A virus; assay: Antiviral activity against Influenza A virus (A/Washington/01/2007 (H3N2)) measured in MDCK cells by fluorescent NA inhibition assay; type: functional, organism-based

SMILES	IC50 [1]	IC50 [2]
C/C=C\[C@@H]1C[C@H](C(=O)O)N[C@H]1[C@@H](NC(C)=O)[C@](C)(CCC)OC	0.74 nM	1.22 nM
CCOC(=O)C1=C[C@@H](OC(CC)CC)[C@H](NC(C)=O)[C@@H](N)C1 [OSELTAMIVIR]	0.16 nM	0.44 nM
CCC(CC)[C@H](NC(C)=O)[C@@H]1[C@H](O)[C@@H](C(=O)O)C[C@H]1NC(=N)N [PERAMIVIR ANHYDROUS]	0.28 nM	0.5 nM
